Measured values reported in patent publication US20030095958A1, “Inhibitors of bace” (priority 2001, published 2003).

Target: BACE (Homo sapiens, UniProt P56817)
Experiment: Ki Determination for the Inhibition of BACE (FS-1 peptide fluorescence cleavage assay)
Assay type: biochemical
Conditions: apparent Ki; 50 nM BACE, 10 μM FS-1 substrate, 0.1M sodium acetate pH 4.5
How it was run: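 Human BACE (50 nM) was preincubated 15 min at room temperature with compound (2% DMSO) in 0.1 M sodium acetate pH 4.5, then 10 μM FS-1 peptide was added. Cleavage was followed by fluorescence (ex 355/em 495 nm), and apparent Ki came from fitting to the integrated competitive tight-binding inhibition equation.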

Chain of BACE (P56817 46-501): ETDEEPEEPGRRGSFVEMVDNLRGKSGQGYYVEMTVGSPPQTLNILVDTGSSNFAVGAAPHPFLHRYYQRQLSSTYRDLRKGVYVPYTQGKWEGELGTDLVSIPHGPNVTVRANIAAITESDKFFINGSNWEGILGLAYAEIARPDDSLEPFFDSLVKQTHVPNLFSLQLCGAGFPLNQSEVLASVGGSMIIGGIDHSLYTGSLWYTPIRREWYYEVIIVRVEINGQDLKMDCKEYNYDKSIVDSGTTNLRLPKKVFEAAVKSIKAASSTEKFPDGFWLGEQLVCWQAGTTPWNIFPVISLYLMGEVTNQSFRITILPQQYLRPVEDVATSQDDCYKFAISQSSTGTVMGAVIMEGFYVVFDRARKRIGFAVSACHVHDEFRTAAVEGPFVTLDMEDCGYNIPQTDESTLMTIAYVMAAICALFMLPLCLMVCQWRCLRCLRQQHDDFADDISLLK

Compound | Ki [µM]
O=C(Nc1cc(F)c(Br)cc1N1CCNCC1)c1cccc2ccccc12 [Compound 157, Naphthalene-1-carboxylic acid (4-bromo-5-fluoro-2-piperazin-1-yl-phenyl)-amide] | > 30
O=C(CNC(=O)C(Cc1ccccc1)NC(=O)OCc1ccccc1)NCC1CNCCC1c1ccc(COc2ccccc2C(F)(F)F)cc1 (stereo not drawn) [Compound 225, (2-Phenyl-1-{[({4-[4-(2-trifluoromethyl-phenoxymethyl)-phenyl]-piperidin-3-ylmethyl}-carbamoyl)-methyl]-carbamoyl}-ethyl)-carbamic acid benzyl ester] | 3 to 30
CCN(CC)S(=O)(=O)c1ccc(-c2ccc(N3CCNCC3)c(NC(=O)c3cccc4ccccc34)c2)cc1 [Compound 145, Naphthalene-1-carboxylic acid (4′-diethylsulfamoyl-4-piperazin-1-yl-biphenyl-3-yl)-amide] | 3 to 30
O=C(Nc1cc(-c2cc(Cl)ccc2Cl)ccc1N1CCNCC1)c1cccc2ccccc12 [Compound 108, Naphthalene-1-carboxylic acid (2′,5′-dichloro-4-piperazin-1-yl-biphenyl-3-yl)-amide] | < 3
O=C(Nc1cnc(-c2ccc(Cl)c(Cl)c2)nc1N1CCNCC1)c1cccc2ccccc12 [Compound 217, Naphthalene-1-carboxylic acid [2-(3,4-dichloro-phenyl)-4-piperazin-1-yl-pyrimidin-5-yl]-amide] | 3 to 30
O=C(Nc1cc(Br)cc(COc2ccccc2C(F)(F)F)c1N1CCNCC1)c1nccc2ccccc12 [Compound 176, Isoquinoline-1-carboxylic acid [5-bromo-2-piperazin-1-yl-3-(2-trifluoromethyl-phenoxymethyl)-phenyl]-amide] | < 3
O=C(Nc1cc(-c2cccnc2)ccc1N1CCNCC1)c1cccc2ccccc12 [Compound 110, Naphthalene-1-carboxylic acid (2-piperazin-1-yl-5-pyridin-3-yl-phenyl)-amide] | 3 to 30
O=c1cc(-c2ccccc2)nc(C2CCNCC2)n1Cc1ccc2ccccc2c1 [Compound 218, 3-Naphthalen-2-ylmethyl-6-phenyl-2-piperidin-4-yl-3H-pyrimidin-4-one] | 3 to 30
O=C(Nc1cc(F)c(-c2ccc(C(F)(F)F)cc2)cc1N1CCNCC1)c1cccc2ccccc12 [Compound 159, Naphthalene-1-carboxylic acid (2-fluoro-5-piperazin-1-yl-4′-trifluoromethyl-biphenyl-4-yl)-amide] | < 3
Cc1cccc(-c2ccc(N3CCNCC3)c(NC(=O)c3cccc4ccccc34)c2)c1 [Compound 126, Naphthalene-1-carboxylic acid (3′-methyl-4-piperazin-1-yl-biphenyl-3-yl)-amide] | 3 to 30
O=C(C1CNCCC1c1ccc(COc2ccccc2C(F)(F)F)cc1)N(Cc1ccccc1)c1ccc2ccccc2c1 (stereo not drawn) [Compound 220, 4-[4-(2-Trifluoromethyl-phenoxymethyl)-phenyl]-piperidine-3-carboxylic acid benzyl-naphthalen-2-yl-amide] | 3 to 30
O=C(Nc1cc(-c2ccc(S(=O)(=O)NCc3ccccc3)cc2)ccc1N1CCNCC1)c1cccc2ccccc12 [Compound 146, Naphthalene-1-carboxylic acid (4′-benzylsulfamoyl-4-piperazin-1-yl-biphenyl-3-yl)-amide] | < 3
O=C(Nc1cc(Oc2cccc(Cl)c2)ccc1N1CCNCC1)c1cccc2ccccc12 [Compound 139, Naphthalene-1-carboxylic acid [5-(3-chloro-phenoxy)-2-piperazin-1-yl-phenyl]-amide] | 3 to 30
O=C(Nc1cc(C(F)(F)F)c(-c2ccc(Cl)c(Cl)c2)cc1N1CCNCC1)c1cccc2ccccc12 [Compound 168, Naphthalene-1-carboxylic acid (3′,4′-dichloro-5-piperazin-1-yl-2-trifluoromethyl-biphenyl-4-yl)-amide] | < 3
O=C(Nc1cc(C(F)(F)F)ccc1N1CCNCC1)c1cccc2ccccc12 [Compound 114, Naphthalene-1-carboxylic acid (2-piperazin-1-yl-5-trifluoromethyl-phenyl)-amide] | 3 to 30
O=C(Nc1cc(C(F)(F)F)c(Cl)cc1N1CCNCC1)c1cccc2ccccc12 [Compound 167, Naphthalene-1-carboxylic acid (4-chloro-2-piperazin-1-yl-5-trifluoromethyl-phenyl)-amide] | > 30
COc1cccc(-c2ccc(N3CCNCC3)c(NC(=O)c3cccc4ccccc34)c2)c1 [Compound 119, Naphthalene-1-carboxylic acid (3′-methoxy-4-piperazin-1-yl-biphenyl-3-yl)-amide] | > 30
FC(F)(F)c1ccc(-c2ccc(N3CCNCC3)c(NCc3ccc4ccccc4c3)c2)cc1 [Compound 166, Naphthalen-2-ylmethyl-(4-piperazin-1-yl-4′-trifluoromethyl-biphenyl-3-yl)-amine] | < 3
O=C(OCc1ccc(COc2ccccc2C(F)(F)F)cc1C1=CCNCC1)Oc1cccc2ccccc12 [Compound 318, Carbonic acid naphthalen-1-yl ester 2-(1,2,3,6-tetrahydro-pyridin-4-yl)-4-(2-trifluoromethyl-phenoxymethyl)-benzyl ester] | < 3
O=C(NCc1ccccc1OC(F)(F)F)C1CNCCC1c1ccc(COc2ccccc2C(F)(F)F)cc1 (stereo not drawn) [Compound 208, 4-[4-(2-Trifluoromethyl-phenoxymethyl)-phenyl]-piperidine-3-carboxylic acid 2-trifluoromethoxy-benzylamide] | > 30

More lines, now with the values ahead:

Ki [µM] | Compound
< 3 | O=C(c1cccc2ccccc12)n1c2c(c3cc(OCc4ccccc4C(F)(F)F)ccc31)CCNC2 [Compound 504, Naphthalen-1-yl-[6-(2-trifluoromethyl-benzyloxy)-1,2,3,4-tetrahydro-b-carbolin-9-yl]-methanone]
3 to 30 | COC(=O)c1cccc(OCc2ccc(COc3ccccc3C(F)(F)F)cc2C2=CCNCC2)c1 [Compound 328, 3-[2-(1,2,3,6-Tetrahydro-pyridin-4-yl)-4-(2-trifluoromethyl-phenoxymethyl)-benzyloxy]-benzole acid methyl ester]
< 3 | O=C(c1ccc2ccccc2c1)n1c2c(c3cc(OCc4ccccc4OC(F)F)ccc31)CCNC2 [Compound 530, [6-(2-Difluoromethoxy-benzyloxy)-1,2,3,4-tetrahydro-b-carbolin-9-yl]-naphthalen-2-yl-methanone]
< 3 | c1ccc(-c2ccc(C3CCNCC3OCc3ccc4ccccc4c3)cc2)cc1 (stereo not drawn) [Compound 401]
3 to 30 | O=C(OCc1cc(C2=CCNCC2)c(COc2ccccc2C(F)(F)F)cc1-c1ccoc1)c1ccccn1 [Compound 389, Pyridine-2-carboxylic acid 2-furan-3-yl-5-(1,2,3,6-tetrahydro-pyridin-4-yl)-4-(2-trifluoromethyl-phenoxymethyl)-benzyl ester]
< 3 | FC(F)(F)c1ccccc1COc1ccc2c(c1)c1c(n2Cc2ccc3ccccc3c2)CNCC1 [Compound 535, 9-Naphthalen-2-ylmethyl-6-(2-trifluoromethyl-benzyloxy)-2,3,4,9-tetrahydro-1H-b-carboline]
< 3 | FC(F)(F)c1ccccc1OCc1cc(-c2ccoc2)c(COc2ccccc2C(F)(F)F)cc1C1=CCNCC1 [Compound 343, 4-[4-Furan-3-yl-2,5-bis-(2-trifluoromethyl-phenoxymethyl)-phenyl]-1,2,3,6-tetrahydro-pyridine]
< 3 | CC(=O)c1ccccc1-c1cc(COc2ccccc2C(F)(F)F)c(C2=CCNCC2)cc1COc1ccccc1C(F)(F)F [Compound 350, 1-[4′-(1,2,3,6-Tetrahydro-pyridin-4-yl)-2′,5′-bis-(2-trifluoromethyl-phenoxymethyl)-biphenyl-2-yl]-ethanone]
> 30 | COc1ccc2c(c1)c1c(n2C(=O)c2ccc3ccccc3c2)CNCC1 [Compound 502, (6-Methoxy-1,2,3,4-tetrahydro-b-carbolin-9-yl)-naphthalen-2-yl-methanone]
< 3 | FC(F)(F)c1ccccc1OCc1cc(-c2ccco2)c(COc2ccccc2C(F)(F)F)cc1C1=CCNCC1 [Compound 346, 4-[4-Furan-2-yl-2,5-bis-(2-trifluoromethyl-phenoxymethyl)-phenyl]-1,2,3,6-tetrahydro-pyridine]
< 3 | OCc1ccc(-c2cc(COc3ccccc3C(F)(F)F)c(C3=CCNCC3)cc2COc2ccccc2C(F)(F)F)cc1 [Compound 366, [4′-(1,2,3,6-Tetrahydro-pyridin-4-yl)-2′,5′-bis-(2-trifluoromethyl-phenoxymethyl)-biphenyl-4-yl]-methanol]
< 3 | FC(F)Oc1ccc(COc2ccc3c(c2)c2c(n3Cc3ccc4ccccc4c3)CNCC2)cc1 [Compound 513, 6-(4-Difluoromethoxy-benzyloxy)-9-naphthalen-2-ylmethyl-2,3,4,9-tetrahydro-1H-b-carboline]
< 3 | O=C(OCc1ccccc1-c1ccc(C2=CCNCC2)c(COc2ccccc2C(F)(F)F)c1)c1cccnc1Cl [Compound 384, 2-Chloro-nicotinic acid 4′-(1,2,3,6-tetrahydro-pyridin-4-yl)-3′-(2-trifluoromethyl-phenoxymethyl)-biphenyl-2-ylmethyl ester]
< 3 | O=C(OCc1ccccc1-c1cc(COc2ccccc2C(F)(F)F)c(C2=CCNCC2)cc1COc1ccccc1C(F)(F)F)c1ccco1 [Compound 370, Furan-2-carboxylic acid 4′-(1,2,3,6-tetrahydro-pyridin-4-yl)-2′,5′-bis-(2-trifluoromethyl-phenoxymethyl)-biphenyl-2-ylmethyl ester]
< 3 | FC(F)(F)c1ccc(OCc2ccc(COc3ccccc3C(F)(F)F)cc2C2=CCNCC2)cc1 [Compound 323, 4-[5-(2-Trifluoromethyl-phenoxymethyl)-2-(4-trifluoromethyl-phenoxymethyl)-phenyl]-1,2,3,6-tetrahydro-pyridine]
< 3 | FC(F)(F)c1cccc(COc2ccc3c(c2)c2c(n3Cc3ccc4ccccc4c3)CNCC2)c1 [Compound 537, 9-Naphthalen-2-ylmethyl-6-(3-trifluoromethyl-benzyloxy)-2,3,4,9-tetrahydro-1H-b-carboline]
